Data: patent US8377883B2, “Peptide for anti-angiogenesis and use thereof” (Beijing Institute for Cancer Research, priority 2006, dated 2013)

Key:
osteosarcoma S180 cells = assay: Tumor suppression in osteosarcoma S180 cells tumor-bearing mouse model (Example 4); type: in vivo, mice of Kunming strain; conditions: 50 m/1000 PBS/injection, angulus oculi medialis vein daily, 7 times; vs PBS control, P<0.05
Protocol: To confirm the biological effects of FpAT on the growth of mice deriving tumor in mice in vivo, a tumor suppression experiment was carried out in this example using liver cancer H22 cells tumor-bearing mouse model of mice of Kunming strain and osteosarcoma S180 cells tumor-bearing mouse model of mice of Kunming strain. Forty 5-week old mice of Kunming strain purchased from Animal Center Of Chinese Academy Of Medical Sciences were inoculated subcutaneously in forelimb with mouse liver cancer H22 cells (National Institute for the Control of Pharmaceutical and Biological Products) (5×10^6/100 μl/mouse) or osteosarcoma S180 cells (National Institute for the Control of Pharmaceutical and Biological Products) (5×10^6/100 μl/mouse). On the next day after inoculation, each kind of inoculated cells were divided into 2 groups randomly with 10 mice per group. FpAT ([…]) or vehicle (the solvent for peptide) control (PBS:100 μl/injection) were injected in angulus oculi medialis vein daily, 7 times in total. The mice were sacrificed by dislocating the neck on the next day after administration was stopped, and the tumors were taken and weighed for a statistical analysis.

[1] = tested on: pig aorta endothelial cells (PAEC); assay: MTT proliferation of pig aorta endothelial cells; type: cell-based; conditions: similar experiment to HUVEC MTT
[2] = tested on: human gastric carcinoma BGC-823 cells; assay: Tumor suppression in human gastric carcinoma BGC-823 tumor-bearing nude mice model; type: in vivo, Balb/c nude mice; conditions: 50 μg/100 μl PBS/injection, angulus oculi medialis vein once every other day, 10 times; vs vehicle, P<0.05
Protocol: In order to confirm the biological effects of FpAT on the growth of human deriving tumors in nude mice in vivo, a tumor suppression experiment was carried out in this example using human gastric carcinoma BGC-823 cells tumor-bearing nude mice model, human lung cancer PG cells tumor-bearing nude mice model and human colon cancer HT-29 cells tumor-bearing nude mice model.
Twenty 5-week old Balb/c nude mice purchased from Animal Center Of Chinese Academy Of Medical Sciences were inoculated subcutaneously in forelimb with human gastric carcinoma BGC-823 cells (National Institute for the Control of Pharmaceutical and Biological Products) (5×10^6/100 μl/mouse), human lung cancer PG cells (National Institute for the Control of Pharmaceutical and Biological Products) (5×10^6/100 μl/mouse) or human colon cancer HT-29 cells (ATCC® Number: HTB-38™) (5×10^6/100 μl/mouse). On the next day after inoculation, each kind of inoculated cells were divided into 2 groups randomly with 5 mice per group. […] Observation was continued for another 20 days after administration was stopped, and during this period the long and short diameters of the tumors were measured with a vernier caliper once every three days, and the volumes of the tumor mass were calculated according to formula ½×long diameter×short diameter^2. […]

With “H2N-Asp-Ser-Gly-Glu-Gly-Asp-Phe-Leu-Ala-Glu-Gly-Gly-Gly-Val-Arg-COOH (H-DSGEGDFLAEGGGVR-OH; listed as Homo sapiens) [FpAT, fibrinopeptide A truncated, carboxyl terminal 15 amino acids of fibrinopeptide A]” the “growth of osteosarcoma S180 cells in vivo (tumor mass)” value (osteosarcoma S180 cells) was “could suppressed the growths”, the “suppression of PAEC proliferation” value [1] was “came to a same conclusion” and the “growth of human gastric carcinoma BGC-823 cells in nude mice (tumor mass)” value [2] was “could suppress the growths”.
